Here are results for 17 compounds from US11078198B2 (BRISTOL-MYERS SQUIBB COMPANY, priority 2017, dated 2021).

Each structure is given as a SMILES string.

For this assay, the target named is T1, human FXR (Homo sapiens, UniProt Q96RI1).
T1 construct: expressed in transfected cells; host or cells: HEK293 cells stably carrying a 5xGal4-response-element firefly luciferase reporter, transiently transfected with pcDNA3.1-Gal4-FXR
T1 sequence (Q96RI1 262-486 limits assumed): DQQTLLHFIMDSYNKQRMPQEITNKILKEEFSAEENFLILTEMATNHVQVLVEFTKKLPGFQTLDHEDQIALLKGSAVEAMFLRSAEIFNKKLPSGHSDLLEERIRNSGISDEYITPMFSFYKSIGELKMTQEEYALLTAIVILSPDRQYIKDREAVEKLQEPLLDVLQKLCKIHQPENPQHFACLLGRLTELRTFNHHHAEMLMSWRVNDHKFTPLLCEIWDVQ
As to the kind of experiment: transient human FXR/Gal4-luciferase reporter assay. Type of assay: cell-based. As to conditions: Gal4-hFXR transfected HEK293 reporter cells; relative to 8 μM GW-4064. Summed up:
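Transient Gal4-hFXR LBD fusion (pcDNA3.1, Lipofectamine, overnight) expressed in a HEK293 reporter line stably bearing five Gal4 elements upstream of firefly luciferase, grown in charcoal/dextran-stripped FBS. Compound dilutions in DMSO incubated with cells overnight at 37° C, 5% CO2, before luciferase readout.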
For orientation: In a reporter assay the amount or activity of a reporter protein is the signal.
For `CS(=O)(=O)NC(=O)c1cc(F)c2nc(N3CCC4(C=C(c5c(-c6c(Cl)cncc6Cl)noc5C5CC5)C4)CC3)sc2c1` [Example 182, 2-(2-(5-Cyclopropyl-3-(3,5-dichloropyridin-4-yl)isoxazol-4-yl)-7-azaspiro[3.5]non-1-en-7-yl)-4-fluoro-N-(methylsulfonyl)benzo[d]thiazole-6-carboxamide], a half-maximal response (EC50) required 688 nM.

For `O=C(NS(=O)(=O)C1CC1)c1cc(C(F)(F)F)c2cc(N3CCC4(C=C(c5c(-c6c(Cl)cncc6Cl)noc5C5CC5)C4)CC3)ccc2n1` [Example 183, 6-(2-(5-Cyclopropyl-3-(3,5-dichloropyridin-4-yl)isoxazol-4-yl)-7-azaspiro[3.5]non-1-en-7-yl)-N-(cyclopropylsulfonyl)-4-(trifluoromethyl)quinoline-2-carboxamide], a half-maximal response (EC50) required 55 nM.

In turn, `CS(=O)(=O)NC(=O)c1cc(OC(F)F)c2cc(N3CCC4(C=C(c5c(-c6c(Cl)cncc6Cl)noc5C5CC5)C4)CC3)ccc2n1` [Example 185, 6-(2-(5-Cyclopropyl-3-(3,5-dichloropyridin-4-yl)isoxazol-4-yl)-7-azaspiro[3.5]non-1-en-7-yl)-4-(difluoromethoxy)-N-(methylsulfonyl)quinoline-2-carboxamide] yielded an EC50 of 16 nM. This EC50 is about 3.4-fold lower than that of the compound before.

`CS(=O)(=O)NC(=O)c1cc(OC(F)F)c2cc(N3CCC4(C=C(c5c(-c6ccccc6C(F)(F)F)noc5C5CC5)C4)CC3)ccc2n1` [Example 186, 6-(2-(5-Cyclopropyl-3-(2-(trifluoromethyl)phenyl)isoxazol-4-yl)-7-azaspiro[3.5]non-1-en-7-yl)-4-(difluoromethoxy)-N-(methylsulfonyl)quinoline-2-carboxamide]: the EC50 came to 13 nM.

In the case of `CS(=O)(=O)NC(=O)c1cc(OC(F)F)c2cc(N3CCC4(C=C(c5c(-c6cnccc6C(F)(F)F)noc5C5CC5)C4)CC3)ccc2n1` [Example 187, 6-(2-(5-Cyclopropyl-3-(4-(trifluoromethyl)pyridin-3-yl)isoxazol-4-yl)-7-azaspiro[3.5]non-1-en-7-yl)-4-(difluoromethoxy)-N-(methylsulfonyl)quinoline-2-carboxamide], the EC50 worked out at 63 nM.

On to `O=C(NS(=O)(=O)C1CC1)c1cc(OC(F)F)c2cc(N3CCC4(C=C(c5c(-c6cnccc6C(F)(F)F)noc5C5CC5)C4)CC3)ccc2n1` [Example 188, 6-(2-(5-Cyclopropyl-3-(4-(trifluoromethyl)pyridin-3-yl)isoxazol-4-yl)-7-azaspiro[3.5]non-1-en-7-yl)-N-(cyclopropylsulfonyl)-4-(difluoromethoxy)quinoline-2-carboxamide], for which a half-maximal response (EC50) required 43 nM. This EC50 and that of the compound before are within 1.5-fold of each other.

Turning to `O=C(NS(=O)(=O)C1CC1)c1cc(OC(F)F)c2cc(N3CCC4(C=C(c5c(-c6ncccc6Cl)noc5C5CC5)C4)CC3)ccc2n1` [Example 189, 6-(2-(3-(3-Chloropyridin-2-yl)-5-cyclopropylisoxazol-4-yl)-7-azaspiro[3.5]non-1-en-7-yl)-N-(cyclopropylsulfonyl)-4-(difluoromethoxy)quinoline-2-carboxamide], the EC50 amounted to 48 nM.

Regarding `CS(=O)(=O)NC(=O)c1cc(OC(F)F)c2cc(N3CCC4(C=C(c5c(-c6ncccc6Cl)noc5C5CC5)C4)CC3)ccc2n1` [Example 190, 6-(2-(3-(3-Chloropyridin-2-yl)-5-cyclopropylisoxazol-4-yl)-7-azaspiro[3.5]non-1-en-7-yl)-4-(difluoromethoxy)-N-(methylsulfonyl)quinoline-2-carboxamide], it took 168 nM to reach a half-maximal effect (EC50).

For `O=C(NS(=O)(=O)C1CC1)c1cc(OC(F)F)c2cc(N3CCC4(C=C(c5c(-c6cccnc6C(F)(F)F)noc5C5CC5)C4)CC3)ccc2n1` [Example 191, 6-(2-(5-Cyclopropyl-3-(2-(trifluoromethyl)pyridin-3-yl)isoxazol-4-yl)-7-azaspiro[3.5]non-1-en-7-yl)-N-(cyclopropylsulfonyl)-4-(difluoromethoxy)quinoline-2-carboxamide], it took 140 nM to reach a half-maximal effect (EC50).

Compound `CS(=O)(=O)NC(=O)c1cc(OC(F)F)c2cc(N3CCC4(C=C(c5c(-c6cccnc6C(F)(F)F)noc5C5CC5)C4)CC3)ccc2n1` [Example 192, 6-(2-(5-Cyclopropyl-3-(2-(trifluoromethyl)pyridin-3-yl)isoxazol-4-yl)-7-azaspiro[3.5]non-1-en-7-yl)-4-(difluoromethoxy)-N-(methylsulfonyl)quinoline-2-carboxamide] registered an EC50 of 238 nM.

Consider `O=C(NS(=O)(=O)C1CC1)c1ccc2cc(N3CCC4(C=C(c5c(-c6c(Cl)cccc6Cl)noc5C5CC5)C4)CC3)ccc2n1` [Example 193, 6-(2-(5-Cyclopropyl-3-(2,6-dichlorophenyl)isoxazol-4-yl)-7-azaspiro[3.5]non-1-en-7-yl)-N-(cyclopropylsulfonyl)quinoline-2-carboxamide], for which it took 178 nM to reach a half-maximal effect (EC50). This EC50 and that of the compound before are within 1.5-fold of each other.

Compound `CS(=O)(=O)NC(=O)c1ccc2cc(N3CCC4(C=C(c5c(-c6c(Cl)cccc6Cl)noc5C5CC5)C4)CC3)ccc2n1` [Example 194, 6-(2-(5-Cyclopropyl-3-(2,6-dichlorophenyl)isoxazol-4-yl)-7-azaspiro[3.5]non-1-en-7-yl)-N-(methylsulfonyl)quinoline-2-carboxamide] gave an EC50 of 255 nM.

As to `COc1cc(C(=O)NS(C)(=O)=O)nc2ccc(N3CCC4(C=C(c5c(-c6c(Cl)cncc6Cl)noc5C5CC5)C4)CC3)cc12` [Example 195, 6-(2-(5-Cyclopropyl-3-(3,5-dichloropyridin-4-yl)isoxazol-4-yl)-7-azaspiro[3.5]non-1-en-7-yl)-4-methoxy-N-(methylsulfonyl)quinoline-2-carboxamide], a half-maximal effect (EC50) was put at 75 nM. This EC50 lies about 3.4-fold lower than the previous one.

With `COc1cc(C(=O)NS(C)(=O)=O)nc2ccc(N3CCC4(C=C(c5c(-c6ccccc6C(F)(F)F)noc5C5CC5)C4)CC3)cc12` [Example 196, 6-(2-(5-Cyclopropyl-3-(2-(trifluoromethyl)phenyl)isoxazol-4-yl)-7-azaspiro[3.5]non-1-en-7-yl)-4-methoxy-N-(methylsulfonyl)quinoline-2-carboxamide], a half-maximal effect (EC50) was put at 155 nM.

As for `NS(=O)(=O)NC(=O)c1cc(F)c2nc(N3CCC4(C=C(c5c(-c6c(Cl)cncc6Cl)noc5C5CC5)C4)CC3)sc2c1` [Example 197, 2-(2-(5-Cyclopropyl-3-(3,5-dichloropyridin-4-yl)isoxazol-4-yl)-7-azaspiro[3.5]non-1-en-7-yl)-4-fluoro-N-sulfamoylbenzo[d]thiazole-6-carboxamide], the EC50 amounted to 381 nM.

Take `CNC(=O)c1cc(F)c2nc(N3CCC4(C=C(c5c(-c6c(Cl)cncc6Cl)noc5C5CC5)C4)CC3)sc2c1` [Example 198, 2-(2-(5-Cyclopropyl-3-(3,5-dichloropyridin-4-yl)isoxazol-4-yl)-7-azaspiro[3.5]non-1-en-7-yl)-4-fluoro-N-methylbenzo[d]thiazole-6-carboxamide]: the EC50 stood at 311 nM.

In the case of `CC(C)NC(=O)c1cc(F)c2nc(N3CCC4(C=C(c5c(-c6c(Cl)cncc6Cl)noc5C5CC5)C4)CC3)sc2c1` [Example 199, 2-(2-(5-Cyclopropyl-3-(3,5-dichloropyridin-4-yl)isoxazol-4-yl)-7-azaspiro[3.5]non-1-en-7-yl)-4-fluoro-N-isopropylbenzo[d]thiazole-6-carboxamide], a half-maximal response (EC50) required 431 nM.

In general, EC50 refers to the concentration giving half of the maximal effect. The low end stands for an effect from little substance, the high end for a need for much substance.
